Activation data for 43 molecules are collected here from US8748412B2, “Phenylalanine derivatives and their use as non-peptide GLP-1 receptor modulators” (Argusina Bioscience Inc., priority 2011, dated 2014).

Where only a bound is given, the exact number is not on record here.

T1 sequence (P43220 24-463): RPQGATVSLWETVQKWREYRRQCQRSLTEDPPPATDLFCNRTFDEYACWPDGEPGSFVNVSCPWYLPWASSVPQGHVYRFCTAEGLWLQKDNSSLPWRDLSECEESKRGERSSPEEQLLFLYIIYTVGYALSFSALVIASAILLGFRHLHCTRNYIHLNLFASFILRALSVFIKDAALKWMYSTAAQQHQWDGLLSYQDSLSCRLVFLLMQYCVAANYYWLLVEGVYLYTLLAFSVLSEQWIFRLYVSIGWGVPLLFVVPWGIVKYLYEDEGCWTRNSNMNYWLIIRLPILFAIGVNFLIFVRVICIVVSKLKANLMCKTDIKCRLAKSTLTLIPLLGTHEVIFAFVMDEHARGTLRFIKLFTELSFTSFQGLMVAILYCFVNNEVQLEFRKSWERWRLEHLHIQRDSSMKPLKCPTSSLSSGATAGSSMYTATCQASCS

The first experiment addresses T1, human GLP1R (Homo sapiens, UniProt P43220).
T1 construct: expressed in transfected cells; host or cells: CHO cells (ATCC), transient transfection with pCMV-human GLP1R
Nature of the experiment: Human GLP-1 receptor transfected cell assay (MRE/CRE-luciferase reporter gene, agonist activity). In kind it is cell-based. As to conditions: 6 h; concentration 1 μM; read-out: Activity (agonist), percentage of the activity of the control. The procedure: The glucagon-like peptide I receptor (GLP1R) is a class B Gs-coupled membrane receptor, an agonist of which activates adenylate cyclase (AC) and elevates intracellular cAMP level. In turn, the high content of secondary messengers can activate the cAMP response element binding protein (CREB), which can translocate into nucleus to activate gene transcription.
A reporter gene based screening assay was established to measure the effect of a compound on GLP1R. In this assay, a compound was incubated with CHO cells transiently transfected with a human GLP1R plasmid and a multiple response element (MRE)/cAMP response element (CRE)-driven luciferase reporter plasmid. Once luciferase was induced by the compound, its specific substrate can be activated to produce light signal for measurement.
Materials used in this assay included: (i) cell line: Chinese hamster ovary (CHO) cells (ATCC); (ii) fetal bovine serum (FBS) (Biochrom Co.); (iii) culture medium: RPMI1640 (Invitrogen Co.) supplemented with 10% FBS; (iv) LIPOFECTAMINE™ 2000 Reagent (Invitrogen Co.); (v) plasmids: pCMV-human GLP1R and pGL3-1905 reporter plasmid; (vi) GLP1 (7-36 amide) peptide (Sigma Co.); and (vii) BRIGHT-GLO™ Luciferase Assay System (Promega Co.).
Instruments used in this assay included: (i) Form a carbon dioxide incubator (Thermo Form a Co.); and (ii) Flexstation 3 (Molecular Device Co.).
Before transfection, CHO cells were plated into a 6-well culture plate at 800,000/2 mL/well, and cultured at 37° C. in 5% CO2 overnight. On the transfection day, cells were transfected with receptor plasmid and reporter plasmid using LIPOFECTAMINE™ 2000 reagent. After 6-hour transfection, cells were digested and seeded into 96-well plates at 20,000/100 μL/well. After 14-16 hour incubation, transfected cells were washed with 100 μL serum-free RPMII 640 medium first, and then added 50 μL of the culture medium. The GLP-1 standard and test compounds were respectively diluted to a series of concentrations, which were then added into the above 96-well culture plate at 50 μL/well. The cells were incubated at 37° C. in 5% CO2 for 6 hrs. The activity of luciferase was detected using BRIGHT-GLO™ Luciferase Analytic System, and the reading was performed with a Flexstation3 plate reader machine.
Consider `Cc1cccc(CN2CCN(S(=O)(=O)NC(Cc3ccc(-c4noc(-c5ccc(NC(=O)OC(C)(C)C)cc5)n4)c(F)c3)C(=O)O)CC2)c1` (stereo not shown) [Compound 4C], for which the activation at 1 µM is more than 60%. As to `Cc1ccc(N2CCN(C(=O)NC(Cc3ccc(-c4noc(-c5ccc(NC(=O)OC(C)(C)C)cc5)n4)c(F)c3)C(=O)O)CC2)cc1` (stereo not shown) [Compound 4D], the activation at 1 µM was more than 60%.

Consider `CC(C)(C)OC(=O)Nc1ccc(-c2nc(-c3ccc(CC(NC(=O)N4CCN(c5ccc(Cl)cc5)CC4)C(=O)O)cc3F)no2)cc1` (stereo not shown) [Compound 4K], for which the activation at 1 µM was more than 60%. Still for that read-out and setting: in the case of `CC(C)(C)OC(=O)Nc1ccc(-c2nc(-c3ccc(CC(NC(=O)Nc4cc(-c5ccc(F)cc5)on4)C(=O)O)cc3F)no2)cc1` (stereo not shown) [Compound 4S] it was 40 to 60%; in that of `Cc1ccc(-c2ccc(NC(=O)NC(Cc3ccc(-c4noc(-c5ccc(NC(=O)OC(C)(C)C)cc5)n4)c(F)c3)C(=O)O)nc2)cc1` (stereo not shown) [Compound 4T], 40 to 60%; in that of `CC(C)(C)OC(=O)Nc1ccc(-c2nc(-c3ccc(CC(NC(=O)Cc4ccc(-c5ccc(C(F)(F)F)cc5)cc4)C(=O)O)cc3F)no2)cc1` (stereo not shown) [Compound 5I], more than 60%.

With `Cc1ccc(-c2cccc(C(=O)NC(Cc3ccc(-c4noc(-c5ccc(NC(=O)OC(C)(C)C)cc5)n4)nc3)C(=O)O)c2)cc1` (stereo not shown) [Compound 5K], the activation at 1 µM is more than 60%.

As to `Cc1ccc(-c2ccc(C(=O)NC(Cc3ccc(-c4noc(-c5ccc(NC(=O)OC(C)(C)C)cc5)n4)c(F)c3F)C(=O)O)o2)cc1F` (stereo not shown) [Compound 5M], the activation at 1 µM is more than 60%. On the same count and under the same terms, in the case of `Cc1ccc(-c2ccc(C(=O)NC(Cc3ccc(-c4ccc(-c5ccc(NC(=O)OC(C)(C)C)cc5)s4)c(F)c3)C(=O)O)o2)cc1` (stereo not shown) [Compound 5N] it was more than 60%.

Staying with this experiment, now noted: 6 h; concentration 3 μM; read-out: Activity (agonist), percentage of the activity of the control.
For `CC(C)(C)OC(=O)Nc1ccc(C#Cc2ccc(CC(NC(=O)c3cccc(-c4ccc(Cl)cc4)c3)C(=O)O)cc2F)cc1` (stereo not shown) [Compound 4E], the activation at 3 µM lay in the range of 20 to 40%. Same read-out and setting: as for `Cc1cccnc1N1CCCN(C(=O)NC(Cc2ccc(-c3noc(-c4ccc(NC(=O)OC(C)(C)C)cc4)n3)c(F)c2)C(=O)O)CC1` (stereo not shown) [Compound 4R], the figure is 20 to 40%. On to `CC(C)(C)OC(=O)Nc1ccc(-c2nc(-c3ccc(CC(NC(=O)Nc4ccc(C#N)cc4)C(=O)O)cc3F)no2)cc1` (stereo not shown) [Compound 4U], for which the activation at 3 µM lay within 40 to 60%.

Turning to `CC(C)(C)OC(=O)Nc1ccc(-c2nc(-c3ccc(CC(NC(=O)Nc4ccc(C(C)(C)C)cc4)C(=O)O)cc3F)no2)cc1` (stereo not shown) [Compound 4V], the activation at 3 µM was in the range of 40 to 60%. With `CC(C)(C)OC(=O)Nc1ccc(-c2nc(-c3ccc(CC(NC(=O)Nc4ccc(N5CCCCC5)cc4)C(=O)O)cc3F)no2)cc1` (stereo not shown) [Compound 4Y], the activation at 3 µM was in the range of 20 to 40%. Consider `Cc1ccc(-c2cccc(NC(=O)NC(Cc3ccc(-c4noc(-c5ccc(NC(=O)OC(C)(C)C)cc5)n4)c(F)c3)C(=O)O)c2)cc1` (stereo not shown) [Compound 5A], for which the activation at 3 µM fell in the range of 40 to 60%. Regarding `Cn1nc(C(C)(C)C)cc1NC(=O)NC(Cc1ccc(-c2noc(-c3ccc(NC(=O)OC(C)(C)C)cc3)n2)c(F)c1)C(=O)O` (stereo not shown) [Compound 5B], the activation at 3 µM was in the range of 40 to 60%.

As to `CC(C)(C)OC(=O)Nc1ccc(-c2nc(-c3ccc(CC(NC(=O)Nc4ccc(-c5ccccc5F)cn4)C(=O)O)cc3F)no2)cc1` (stereo not shown) [Compound 5C], the activation at 3 µM is more than 60%. For the molecule `CC(C)(C)OC(=O)Nc1ccc(-c2nc(-c3ccc(CC(NC(=O)N4CCC(c5ccccc5)C4)C(=O)O)cc3F)no2)cc1` (stereo not shown) [Compound 5D], the activation at 3 µM was more than 60%.

The same experiment, now with this note: 6 h; concentration 3.16 μM; read-out: Activity (agonist), percentage of the activity of the control.
Take `CC(C)(C)OC(=O)Nc1ccc(-c2nc(-c3ccc(CC(NS(=O)(=O)N4CCN(c5ccccc5F)CC4)C(=O)O)cc3F)no2)cc1` (stereo not shown) [Compound 4B]: the activation at 3.16 µM was in the range of 40 to 60%. On to `CC(C)(C)OC(=O)Nc1ccc(-c2nc(-c3ccc(CC(NC(=O)N4CCN(C(=O)OC(C)(C)C)CC4)C(=O)O)cc3F)no2)cc1` (stereo not shown) [Compound 4F], for which the activation at 3.16 µM is 40 to 60%. As to `CC(C)(C)OC(=O)Nc1ccc(-c2nc(-c3ccc(CC(NC(=O)Nc4cc(-c5ccccc5)n[nH]4)C(=O)O)cc3F)no2)cc1` (stereo not shown) [Compound 4G], the activation at 3.16 µM is more than 60%. Same read-out and setting: in the case of `CC(C)(C)OC(=O)Nc1ccc(-c2nc(-c3ccc(CC(NC(=O)Nc4ccncc4)C(=O)O)cc3F)no2)cc1` (stereo not shown) [Compound 4H] it was more than 60%. For the molecule `CC(C)(C)OC(=O)Nc1ccc(-c2nc(-c3ccc(CC(NC(=O)Nc4cc(-c5ccc(Cl)cc5)n[nH]4)C(=O)O)cc3F)no2)cc1` (stereo not shown) [Compound 4I], the activation at 3.16 µM is more than 60%. For the molecule `COc1ccc(N2CCN(C(=O)NC(Cc3ccc(-c4noc(-c5ccc(NC(=O)OC(C)(C)C)cc5)n4)c(F)c3)C(=O)O)CC2)cc1` (stereo not shown) [Compound 4J], the activation at 3.16 µM lay within 40 to 60%. Regarding `CC(C)(C)OC(=O)Nc1ccc(-c2nc(-c3ccc(CC(NC(=O)Nc4ccnc(Cl)c4)C(=O)O)cc3F)no2)cc1` (stereo not shown) [Compound 4L], the activation at 3.16 µM was 40 to 60%. Turning to `Cc1ccc(NC(=O)NC(Cc2ccc(-c3noc(-c4ccc(NC(=O)OC(C)(C)C)cc4)n3)c(F)c2)C(=O)O)cc1` (stereo not shown) [Compound 4M], the activation at 3.16 µM is more than 60%. Consider `CC(C)(C)OC(=O)Nc1ccc(-c2nc(-c3ccc(CC(NC(=O)Nc4ccc(Br)nc4)C(=O)O)cc3F)no2)cc1` (stereo not shown) [Compound 4N], for which the activation at 3.16 µM lay within 20 to 40%. Same read-out and setting: as for `CC(C)(C)OC(=O)Nc1ccc(-c2nc(-c3ccc(CC(NC(=O)N4CCCN(c5ccc(F)cn5)CC4)C(=O)O)cc3F)no2)cc1` (stereo not shown) [Compound 4Q], the figure is more than 60%; as for `Cc1ccc(-c2ccc(C(=O)NC(Cc3ccc(-c4noc(-c5ccc(NC(=O)OC(C)(C)C)cc5)n4)cc3C(F)(F)F)C(=O)O)o2)cc1` (stereo not shown) [Compound 5J], more than 60%.

Turning to `CC(C)(C)OC(=O)Nc1ccc(-c2ccc(-c3ccc(CC(NC(=O)c4ccc(-c5ccc(F)cc5)o4)C(=O)O)cc3F)s2)cc1` (stereo not shown) [Compound 5O], the activation at 3.16 µM was more than 60%. Regarding `CC(C)(C)OC(=O)Nc1ccc(/C=C/c2ccc(CC(NC(=O)c3ccc(NC(=O)OC(C)(C)C)cc3)C(=O)O)cc2F)cc1` (stereo not shown) [Compound 5R], the activation at 3.16 µM fell in the range of 40 to 60%.

Staying with this experiment, now noted: 6 h; concentration 5 μM; read-out: Activity (agonist), percentage of the activity of the control.
As for `Cc1ccc(N2CCN(CC(=O)NC(Cc3ccc(-c4noc(-c5ccc(NC(=O)OC(C)(C)C)cc5)n4)c(F)c3)C(=O)O)CC2)cc1` (stereo not shown) [Compound 5H], the activation at 5 µM was more than 60%.

The experiment is the same for the next values; noted with them: 6 h; concentration 10 μM; read-out: Activity (agonist), percentage of the activity of the control.
Consider `Cc1ccc(-c2ccc(NC(=O)NC(Cc3ccc(-c4noc(-c5ccc(NC(=O)OC(C)(C)C)cc5)n4)c(F)c3)C(=O)O)cn2)cc1` (stereo not shown) [Compound 4O], for which the activation at 10 µM is more than 60%. On to `CC(C)(C)OC(=O)Nc1ccc(-c2nc(-c3ccc(CC(NC(=O)N4CCCN(c5ccc(C#N)cc5)CC4)C(=O)O)cc3F)no2)cc1` (stereo not shown) [Compound 4P], for which the activation at 10 µM is more than 60%. On to `CC(C)c1ccc(NC(=O)NC(Cc2ccc(-c3noc(-c4ccc(NC(=O)OC(C)(C)C)cc4)n3)c(F)c2)C(=O)O)cc1` (stereo not shown) [Compound 4W], for which the activation at 10 µM lay in the range of 40 to 60%. For `CC(C)(C)OC(=O)Nc1ccc(-c2nc(-c3ccc(CC(NC(=O)Nc4ccc(-c5ccc(F)cc5)cn4)C(=O)O)cc3F)no2)cc1` (stereo not shown) [Compound 4X], the activation at 10 µM is more than 60%.

With `Cc1ccc(-c2ccc(NC(=O)NC(Cc3ccc(-c4noc(-c5ccc(NC(=O)OC(C)(C)C)cc5)n4)c(F)c3)C(=O)O)nc2)cc1Cl` (stereo not shown) [Compound 4Z], the activation at 10 µM lay within 40 to 60%. Take `Cc1ccc(-c2ccc(C(=O)NC(Cc3ccc(C#Cc4ccc(NC(=O)OC(C)(C)C)cc4)c(F)c3)C(=O)O)o2)cc1` (stereo not shown) [Compound 5E]: the activation at 10 µM was more than 60%. Take `Cc1ccc(-c2ccc(NC(=O)NC(Cc3ccc(-c4noc(-c5ccc(NC(=O)OC(C)(C)C)cc5)n4)c(F)c3)C(=O)O)nc2)cc1F` (stereo not shown) [Compound 5F]: the activation at 10 µM is more than 60%. As to `CC(=O)N(Cc1ccc(-c2ccc(C)cc2)o1)C(Cc1ccc(-c2noc(-c3ccc(NC(=O)OC(C)(C)C)cc3)n2)c(F)c1)C(=O)O` (stereo not shown) [Compound 5G], the activation at 10 µM was more than 60%.

For `Cc1ccc(-c2ccc(C(=O)NC(Cc3cc(F)c(-c4noc(-c5ccc(NC(=O)OC(C)(C)C)cc5)n4)c(F)c3)C(=O)O)o2)cc1` (stereo not shown) [Compound 5L], the activation at 10 µM is more than 60%. In the case of `Cc1ccc(-c2ccc(C(=O)N[C@H](Cc3ccc(-c4cc(-c5ccc(NC(=O)OC(C)C)cc5)[nH]n4)c(F)c3)C(=O)O)o2)cc1` [Compound 5P], the activation at 10 µM was more than 60%. For `Cc1ccc(-c2ccc(C(=O)N[C@H](Cc3ccc(-c4cn(-c5ccc(NC(=O)OC(C)C)cc5)nn4)c(F)c3)C(=O)O)o2)cc1` [Compound 5Q], the activation at 10 µM was more than 60%.
